Measurements published in patent US20010021697A1, “METHODS AND COMPOSITIONS FOR THE TREATMENT OF MAMMALIAN INFECTIONS EMPLOYING MEDICAMENTS COMPRISING HYMENOPTERA VENOM, PROTEINAGEOUS OR POLYPEPTIDE COMPONENTS THEREOF, OR ANALOGUES OF SUCH PROTEINACEOUS OR POLYPEPTIDE COMPONENTS” (priority 1987, published 2001).
Read-outs that look alike come from different tables or passages of the source.

Experiments:
Assay type in all cases: cell-based
S. aureus #140A = test system: S. aureus #140A
E. coli #G1880E = test system: E. coli #G1880E
[1] = test system: kanamycin resistant S. aureus; experiment: Checkerboard titration assay for synergy of honeybee venom with antibiotics (OD660 growth curves)

SMILES: CC1(C)S[C@@H]2[C@H](NC(=O)[C@H](N)c3ccccc3)C(=O)N2[C@H]1C(=O)O [AMP]
- MEAN A660 (S. aureus #140A; AMP = 0.05, HBV = 0, T0): 0.013
- MEAN A660 (S. aureus #140A; AMP = 0.05, HBV = 0, T2): 0.085
- MEAN A660 (S. aureus #140A; AMP = 0.05, HBV = 0, T4): 0.355
- MEAN A660 (S. aureus #140A; AMP = 0.05, HBV = 0, T6): 0.552
- MEAN A660 (S. aureus #140A; AMP = 0.05, HBV = 0, T12): 0.736
- MEAN A660 (S. aureus #140A; AMP = 0.05, HBV = 0, T24): 0.760
- MEAN A660 (S. aureus #140A; AMP = 0.05, HBV = 0, TB): 0.689
- MEAN A66O (S. aureus #140A; AMP = 0.1, HBV = 0, T0): 0.013
- MEAN A66O (S. aureus #140A; AMP = 0.1, HBV = 0, T2): 0.085
- MEAN A66O (S. aureus #140A; AMP = 0.1, HBV = 0, T4): 0.257
- MEAN A66O (S. aureus #140A; AMP = 0.1, HBV = 0, T6): 0.248
- MEAN A66O (S. aureus #140A; AMP = 0.1, HBV = 0, T8): 0.155
- MEAN A66O (S. aureus #140A; AMP = 0.1, HBV = 0, T12): 0.095
- MEAN A66O (S. aureus #140A; AMP = 0.1, HBV = 0, T24): 0.347
- MEAN A660 (S. aureus #140A; AMP = 0.2, HBV = 0, T0): 0.013
- MEAN A660 (S. aureus #140A; AMP = 0.2, HBV = 0, T2): 0.085
- MEAN A660 (S. aureus #140A; AMP = 0.2, HBV = 0, T4): 0.202
- MEAN A660 (S. aureus #140A; AMP = 0.2, HBV = 0, T6): 0.112
- MEAN A660 (S. aureus #140A; AMP = 0.2, HBV = 0, T8): 0.052
- MEAN A660 (S. aureus #140A; AMP = 0.2, HBV = 0, T12): 0.037
- MEAN A660 (S. aureus #140A; AMP = 0.2, HBV = 0, T24): 0.042
- MEAN A66O (S. aureus #140A; AMP = 0.4, HBV = 0, T0): 0.013
- MEAN A66O (S. aureus #140A; AMP = 0.4, HBV = 0, T2): 0.085
- MEAN A66O (S. aureus #140A; AMP = 0.4, HBV = 0, T4): 0.191
- MEAN A66O (S. aureus #140A; AMP = 0.4, HBV = 0, T6): 0.110
- MEAN A66O (S. aureus #140A; AMP = 0.4, HBV = 0, T8): 0.048
- MEAN A66O (S. aureus #140A; AMP = 0.4, HBV = 0, T12): 0.027
- MEAN A66O (S. aureus #140A; AMP = 0.4, HBV = 0, T24): 0.027
- MEAN A660 (E. coli #G1880E; AMP = 0.5, HBV = 0, T0): 0.015
- MEAN A660 (E. coli #G1880E; AMP = 0.5, HBV = 0, T2): 0.084
- MEAN A660 (E. coli #G1880E; AMP = 0.5, HBV = 0, T4): 0.600
- MEAN A660 (E. coli #G1880E; AMP = 0.5, HBV = 0, T6): 1.001
- MEAN A660 (E. coli #G1880E; AMP = 0.5, HBV = 0, T8): 0.999
- MEAN A660 (E. coli #G1880E; AMP = 0.5, HBV = 0, T12): 1.085
- MEAN A660 (E. coli #G1880E; AMP = 0.5, HBV = 0, T24): 1.156
- MEAN A660 (E. coli #G1880E; AMP = 1, HBV = 0, T0): 0.015
- MEAN A660 (E. coli #G1880E; AMP = 1, HBV = 0, T2): 0.084
- MEAN A660 (E. coli #G1880E; AMP = 1, HBV = 0, T4): 0.538
- MEAN A660 (E. coli #G1880E; AMP = 1, HBV = 0, T6): 0.628
- MEAN A660 (E. coli #G1880E; AMP = 1, HBV = 0, T8): 0.493
- MEAN A660 (E. coli #G1880E; AMP = 1, HBV = 0, T12): 0.475
- MEAN A660 (E. coli #G1880E; AMP = 1, HBV = 0, T24): 0.504
- MEAN A660 (E. coli #G1880E; AMP = 2, HBV = 0, T0): 0.015
- MEAN A660 (E. coli #G1880E; AMP = 2, HBV = 0, T2): 0.084
- MEAN A660 (E. coli #G1880E; AMP = 2, HBV = 0, T4): 0.428
- MEAN A660 (E. coli #G1880E; AMP = 2, HBV = 0, T12): 0.136
- MEAN A660 (E. coli #G1880E; AMP = 2, HBV = 0, T24): 0.647
- MEAN A660 (E. coli #G1880E; AMP = 4, HBV = 0, T0): 0.015
- MEAN A660 (E. coli #G1880E; AMP = 4, HBV = 0, T2): 0.084
- MEAN A660 (E. coli #G1880E; AMP = 4, HBV = 0, T4): 0.158
- MEAN A660 (E. coli #G1880E; AMP = 4, HBV = 0, T6): 0.063
- MEAN A660 (E. coli #G1880E; AMP = 4, HBV = 0, T12): 0.055
- MEAN A660 (E. coli #G1880E; AMP = 4, HBV = 0, T24): 0.056
- MEAN A660 ([1]; AMP = 0.05, HBV = 0, T0): 0.020
- MEAN A660 ([1]; AMP = 0.05, HBV = 0, T2): 0.064
- MEAN A660 ([1]; AMP = 0.05, HBV = 0, T4): 0.230
- MEAN A660 ([1]; AMP = 0.05, HBV = 0, T6): 0.338
- MEAN A660 ([1]; AMP = 0.05, HBV = 0, T8): 0.372
- MEAN A660 ([1]; AMP = 0.05, HBV = 0, T12): 0.352
- MEAN A660 ([1]; AMP = 0.05, HBV = 0, T24): 0.461
- MEAN A660 ([1]; AMP = 0.1, HBV = 0, T0): 0.020
- MEAN A660 ([1]; AMP = 0.1, HBV = 0, T2): 0.064
- MEAN A660 ([1]; AMP = 0.1, HBV = 0, T4): 0.379
- MEAN A660 ([1]; AMP = 0.1, HBV = 0, T6): 0.156
- MEAN A660 ([1]; AMP = 0.1, HBV = 0, T8): 0.112
- MEAN A660 ([1]; AMP = 0.1, HBV = 0, T12): 0.050
- MEAN A660 ([1]; AMP = 0.1, HBV = 0, T24): 0.053
- MEAN A660 ([1]; AMP = 0.2, HBV = 0, T0): 0.020
- MEAN A660 ([1]; AMP = 0.2, HBV = 0, T2): 0.064
- MEAN A660 ([1]; AMP = 0.2, HBV = 0, T4): 0.131
- MEAN A660 ([1]; AMP = 0.2, HBV = 0, T6): 0.110
- MEAN A660 ([1]; AMP = 0.2, HBV = 0, T8): 0.073
- MEAN A660 ([1]; AMP = 0.2, HBV = 0, T12): 0.030
- MEAN A660 ([1]; AMP = 0.2, HBV = 0, T24): 0.037
- MEAN A660 ([1]; AMP = 0.4, HBV = 0, T0): 0.020
- MEAN A660 ([1]; AMP = 0.4, HBV = 0, T2): 0.064
- MEAN A660 ([1]; AMP = 0.4, HBV = 0, T4): 0.202
- MEAN A660 ([1]; AMP = 0.4, HBV = 0, T6): 0.290
- MEAN A660 ([1]; AMP = 0.4, HBV = 0, T8): 0.285
- MEAN A660 ([1]; AMP = 0.4, HBV = 0, T12): 0.271
- MEAN A660 ([1]; AMP = 0.4, HBV = 0, T24): 0.277
